Test results from patent US20100267561A1, “HERBICIDAL PYRIDAZINONE DERIVATIVES” (priority 2007, published 2010).

How the values were obtained:
Format in all cases: in vivo
[1] = test system: giant foxtail (Setaria faberi); experiment: Test A pre-/postemergence plant response
Procedure, shortened: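 Ratings run 0–100 (100 = complete control), assigned visually against untreated controls roughly 10 days after treatment in a greenhouse. Compounds, formulated in non-phytotoxic solvent containing surfactant, were applied as a soil-directed preemergence spray and concurrently postemergence to one- to two-leaf plants 2–10 cm tall.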

[2] = test system: bermudagrass (Cynodon dactylon); experiment: Test B pre-/postemergence plant response; conditions: for Bermudagrass plant response rating: 8 g ai/ha
Procedure, shortened: (§1)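 Visual scoring from 0 (no effect) to 100 (complete control) against untreated controls was done 13 to 15 days after greenhouse treatment. Chemicals were formulated in a surfactant-containing non-phytotoxic solvent and applied to soil preemergence or to 1- to 4-leaf (2-18 cm) plants postemergence.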

[3] = test system: blackgrass (Alopecurus myosuroides); experiment: Test B pre-/postemergence plant response; conditions: for Blackgrass plant response rating: 8 g ai/ha
Procedure, shortened: as §1

[4] = test system: common (oilseed) sunflower (Helianthus annuus); experiment: Test B pre-/postemergence plant response; conditions: Preemergence
Procedure, shortened: as §1

[5] = test system: downy bromegrass (Bromus tectorum); experiment: Test B pre-/postemergence plant response; conditions: for Bromegrass, Downy plant response rating: 8 g ai/ha
Procedure, shortened: as §1

[6] = test system: giant foxtail (Setaria faberii); experiment: Test B pre-/postemergence plant response; conditions: for Foxtail, Giant plant response rating: 8 g ai/ha
Procedure, shortened: as §1

[7] = test system: goosegrass (Eleusine indica); experiment: Test B pre-/postemergence plant response; conditions: for Goosegrass plant response rating: 8 g ai/ha
Procedure, shortened: as §1

[8] = test system: johnsongrass (Sorghum halepense); experiment: Test B pre-/postemergence plant response; conditions: for Johnsongrass plant response rating: 8 g ai/ha
Procedure, shortened: as §1

[9] = test system: pigweed (Amaranthus retroflexus); experiment: Test B pre-/postemergence plant response; conditions: for Pigweed plant response rating: 8 g ai/ha
Procedure, shortened: as §1

soybean (Glycine max) = experiment: Test B pre-/postemergence plant response; conditions: for Soybean plant response rating: 8 g ai/ha
Procedure, shortened: as §1

[10] = test system: velvetleaf (Abutilon theophrasti); experiment: Test B pre-/postemergence plant response; conditions: for Velvetleaf plant response rating: 8 g ai/ha
Procedure, shortened: as §1

[11] = test system: wheat (Triticum aestivum); experiment: Test B pre-/postemergence plant response; conditions: for Wheat plant response rating: 8 g ai/ha
Procedure, shortened: as §1

[12] = Postemergence, 16 g ai/ha, scale 0 to 100
[13] = Postemergence, 31 g ai/ha, scale 0 to 100, 0 no effect, 100 complete control
[14] = Postemergence, 62 g ai/ha, scale 0 to 100
[15] = Preemergence, 16 g ai/ha, scale 0 to 100 (0 no effect, 100 complete control)
[16] = Preemergence, 31 g ai/ha, 0 to 100 scale, 0 no effect, 100 complete control
[17] = Preemergence, 62 g ai/ha, scale 0 to 100

## CCc1cc(-c2ccc(C(F)(F)F)cc2)nn1-c1c(OS(C)(=O)=O)cnn(C)c1=O [Compound 19]
[1]; Postemergence, 125 g ai/ha, 0 to 100 scale, 0 no effect, 100 complete control
  Plant response rating, Foxtail, Giant: 100
[1]; Postemergence, 500 g ai/ha, 0 to 100 scale, 0 no effect, 100 complete control
  Plant response rating, Foxtail, Giant: 100
[1]; Preemergence, 125 g ai/ha, 0 to 100 scale (0 no effect, 100 complete control)
  Plant response rating, Foxtail, Giant: 100
[1]; Preemergence, 500 g ai/ha, 0 to 100 scale (0 no effect, 100 complete control)
  Plant response rating, Foxtail, Giant: 100
[2]; postemergence, 0-100 scale
  Bermudagrass plant response rating: 80
[2]; [12]
  Plant response rating, Bermudagrass: 100
[2]; [13]
  Plant response rating, Bermudagrass: 100
[2]; [14]
  Plant response rating, Bermudagrass: 100
[2]; Preemergence, scale 0 to 100 (0 no effect, 100 complete control)
  Bermudagrass plant response rating: 0
[2]; [15]
  Plant response rating, Bermudagrass: 90
[2]; [16]
  Plant response rating, Bermudagrass: 98
[2]; [17]
  Plant response rating, Bermudagrass: 100
[3]; postemergence, 0-100 scale
  Blackgrass plant response rating: 80
[3]; [12]
  Plant response rating, Blackgrass: 85
[3]; [13]
  Plant response rating, Blackgrass: 90
[3]; [14]
  Plant response rating, Blackgrass: 95
[3]; [15]
  Plant response rating, Blackgrass: 100
[3]; [16]
  Plant response rating, Blackgrass: 100
[3]; [17]
  Plant response rating, Blackgrass: 100
[3]; Preemergence, scale 0 to 100
  Blackgrass plant response rating: 95
[4]; 16 g ai/ha, scale 0 to 100 (0 no effect, 100 complete control)
  Plant response rating, Sunflower: 0
[4]; 31 g ai/ha, 0 to 100 scale, 0 no effect, 100 complete control
  Plant response rating, Sunflower: 0
[4]; 62 g ai/ha, scale 0 to 100
  Plant response rating, Sunflower: 0
[4]; 8 g ai/ha, scale 0 to 100
  Sunflower plant response rating: 0
[5]; postemergence, 0-100 scale
  Bromegrass, Downy plant response rating: 10
[5]; [12]
  Plant response rating, Bromegrass, Downy: 75
[5]; [13]
  Plant response rating, Bromegrass, Downy: 75
[5]; [14]
  Plant response rating, Bromegrass, Downy: 90
[5]; [15]
  Plant response rating, Bromegrass, Downy: 0
[5]; [16]
  Plant response rating, Bromegrass, Downy: 30
[5]; [17]
  Plant response rating, Bromegrass, Downy: 60
[5]; Preemergence, scale 0 to 100
  Bromegrass, Downy plant response rating: 0
[6]; postemergence, 0-100 scale
  Foxtail, Giant plant response rating: 95
[6]; [12]
  Plant response rating, Foxtail, Giant: 100
[6]; [13]
  Plant response rating, Foxtail, Giant: 100
[6]; [14]
  Plant response rating, Foxtail, Giant: 100
[6]; [15]
  Plant response rating, Foxtail, Giant: 100
[6]; [16]
  Plant response rating, Foxtail, Giant: 100
[6]; [17]
  Plant response rating, Foxtail, Giant: 100
[6]; Preemergence, scale 0 to 100
  Foxtail, Giant plant response rating: 70
[7]; postemergence, 0-100 scale
  Goosegrass plant response rating: 50
[7]; [12]
  Plant response rating, Goosegrass: 80
[7]; [13]
  Plant response rating, Goosegrass: 80
[7]; [14]
  Plant response rating, Goosegrass: 90
[7]; [15]
  Plant response rating, Goosegrass: 75
[7]; [16]
  Plant response rating, Goosegrass: 100
[7]; [17]
  Plant response rating, Goosegrass: 100
[7]; Preemergence, scale 0 to 100
  Goosegrass plant response rating: 0
[8]; postemergence, 0-100 scale
  Johnsongrass plant response rating: 40
[8]; [12]
  Plant response rating, Johnsongrass: 80
[8]; [13]
  Plant response rating, Johnsongrass: 100
[8]; [14]
  Plant response rating, Johnsongrass: 100
[8]; [15]
  Plant response rating, Johnsongrass: 100
[8]; [16]
  Plant response rating, Johnsongrass: 100
[8]; [17]
  Plant response rating, Johnsongrass: 100
[8]; Preemergence, scale 0 to 100
  Johnsongrass plant response rating: 80
[9]; postemergence, 0-100 scale
  Pigweed plant response rating: 0
[9]; [12]
  Plant response rating, Pigweed: 0
[9]; [13]
  Plant response rating, Pigweed: 0
[9]; [14]
  Plant response rating, Pigweed: 0
[9]; [15]
  Plant response rating, Pigweed: 0
[9]; [16]
  Plant response rating, Pigweed: 0
[9]; [17]
  Plant response rating, Pigweed: 0
[9]; Preemergence, scale 0 to 100
  Pigweed plant response rating: 0
Soybean (Glycine max); postemergence, 0-100 scale
  Soybean plant response rating: 0
Soybean (Glycine max); [12]
  Plant response rating, Soybean: 0
Soybean (Glycine max); [13]
  Plant response rating, Soybean: 0
Soybean (Glycine max); [14]
  Plant response rating, Soybean: 0
Soybean (Glycine max); [17]
  Plant response rating, Soybean: 0
Soybean (Glycine max); Preemergence, scale 0 to 100
  Soybean plant response rating: 0
[10]; postemergence, 0-100 scale
  Velvetleaf plant response rating: 0
[10]; [12]
  Plant response rating, Velvetleaf: 0
[10]; [13]
  Plant response rating, Velvetleaf: 0
[10]; [14]
  Plant response rating, Velvetleaf: 0
[10]; [15]
  Plant response rating, Velvetleaf: 0
[10]; [16]
  Plant response rating, Velvetleaf: 0
[10]; [17]
  Plant response rating, Velvetleaf: 0
[10]; Preemergence, scale 0 to 100
  Velvetleaf plant response rating: 0
[11]; postemergence, 0-100 scale
  Wheat plant response rating: 0
[11]; [12]
  Plant response rating, Wheat: 60
[11]; [13]
  Plant response rating, Wheat: 85
[11]; [14]
  Plant response rating, Wheat: 98
[11]; [15]
  Plant response rating, Wheat: 10
[11]; [16]
  Plant response rating, Wheat: 90
[11]; [17]
  Plant response rating, Wheat: 95
[11]; Preemergence, scale 0 to 100
  Wheat plant response rating: 0
